Laboratory results from patent US12071436B2, “Anti-parasitic compounds and uses thereof” (Memorial Sloan-Kettering Cancer Center, priority 2016, dated 2024).
Like-named read-outs stand apart in the source and are kept apart here. Blank lines part the entries; values can stand above or below the compound they belong to.

Columns and labels:
[1] = tested on: P. falciparum Dd2; experiment: Anti-plasmodial growth inhibition, SYBR green I-based DNA quantification; format: cell-based; conditions: Plasmodium falciparum, 72 h incubation, n=3
Method: (§1) Select compounds described herein were evaluated for structure-activity analyses for anti-plasmodial activity in vitro. For Dd2 EC50 (M), calculations were for n=3. For HepG2 EC50 (M), calculations were for n=1. For the human microsomal stability determination, t was 60 minutes.
Different dilutions of the compound in RPMI 1640 (Life Technologies) from a stock of 10 mM in dimethyl sulfoxide (DMSO) were added to the culture at a 1% parasitemia and 2% hematocrit in 96-well black plates (Santa Cruz Biotechnology). Maximum DMSO concentration in the culture never exceeded 0.25%. Chloroquine at 1 μM was used as a positive control to determine the baseline value. Following 72 h incubation at 37° C., the ability of the compounds to inhibit growth of the parasite was determined by a SYBR green I-based DNA quantification assay (See Bennett et al., 2004, Chemother. 48, 1807-1810; see also Johnson et al., 2007, Antimicrob. Agents. Chemother. 51, 1926-1933; Smilkstein et al., 2004, Antimicrob. Agents. Chemother. 48, 1803-1806). EC50 was calculated (n=3) from a dose response curve that was generated from a concentration range of 0-20 μM using GraphPad Prism v5.0.

[2] = tested on: HepG2 human hepatoma cells; experiment: HepG2 cytotoxicity, MTS cell proliferation assay; format: cell-based; conditions: 48 h, n=1
Method: as §1
Selected compounds were evaluated for cytotoxicity using HepG2 human hepatoma cells. A 384-well clear bottom plate was seeded with 2,500 cells/well and incubated for 24 h. Serial dilutions of the compound (were added to the plate and plates were incubated for an additional 48 h. Viability of cells were assessed by MTS [(3-(4,5-dimethylthiazol-2-yl)-5-(3-carboxymethoxyphenyl)-2-(4-sulfophenyl)-2H-tetrazolium) cell proliferation assay (CellTiter 96® Aqueous non-radioactive cell proliferation assay, Promega) (See Cory et al., Cancer Communications, 3, 1991, p. 207-212).

[3] = Plasma pharmacokinetics and liver distribution study in female BALB/c mice; format: in vivo, mouse; conditions: for AUC(0-inf) / Tmax / half-life / Cmax: female, BALB/c, mouse
Method: A plasma pharmacokinetics and liver distribution study of selected compounds, including Pyrrolopyridine-008 (2015-foleyc-216), Pyrrolopyridine-D20-ent (2015-foleyc-217), and Pyrrolopyridine-M03 (2015-foleyc-218), in female BALB/c mice was conducted following a single intraperitoneal and oral administration. […] The blood samples were collected from a set of […] mice at each time point in labeled micro centrifuge tube containing K2EDTA as anticoagulant. Plasma samples were separated by centrifugation at 4000 rpm for 10 min and stored below −70° C. until bioanalysis. After collection of blood sample, animals were humanely euthanized by carbon dioxide asphyxiation to collect liver from Group 1 and Group 2 at all the time points. The collected tissues were rinsed in PBS and were homogenized with nine times of liver weight in ice cold phosphate buffer saline (pH 7.4) and stored below −70° C. until bio-analysis. Total homogenate volume was ten times the tissue weight. All samples were processed for analysis by protein precipitation using acetonitrile and analyzed with fit-for-purpose LC-MS/MS method (LLOQ: 2.01 ng/mL for plasma and 50.30 ng/g for liver). Pharmacokinetic parameters were calculated using the non-compartmental analysis tool of Phoenix WinNonlin® (Version 6.3).

[4] = ip, Dose: 100 mg/kg, liver, read-out: PK (ip, plasma/liver) AUCinf, liver
[5] = ip, Dose: 100 mg/kg, liver, read-out: PK (ip, plasma/liver) Tmax, liver
[6] = ip, Dose: 100 mg/kg, liver, read-out: PK (ip, plasma/liver) t1/2, liver (converted)
[7] = ip, Dose: 100 mg/kg, plasma, read-out: PK (ip, plasma/liver) AUCinf, plasma
[8] = ip, Dose: 100 mg/kg, plasma, read-out: PK (ip, plasma/liver) Cmax, plasma
[9] = ip, Dose: 100 mg/kg, plasma, read-out: PK (ip, plasma/liver) Tmax, plasma
[10] = ip, Dose: 100 mg/kg, plasma, read-out: PK (ip, plasma/liver) t1/2, plasma (converted)
[11] = po, Dose: 100 mg/kg, liver, read-out: PK (po, plasma/liver) Area under the curve (AUCinf), liver
[12] = po, Dose: 100 mg/kg, liver, read-out: PK (po, plasma/liver) Tmax, liver
[13] = po, Dose: 100 mg/kg, liver, read-out: PK (po, plasma/liver) t1/2, liver (converted)
[14] = po, Dose: 100 mg/kg, plasma, read-out: PK (po, plasma/liver) Area under the curve (AUCinf), plasma
[15] = po, Dose: 100 mg/kg, plasma, read-out: PK (po, plasma/liver) Cmax, plasma
[16] = po, Dose: 100 mg/kg, plasma, read-out: PK (po, plasma/liver) Tmax, plasma
[17] = po, Dose: 100 mg/kg, plasma, read-out: PK (po, plasma/liver) t1/2, plasma (converted)

EC50 [1]: > 25 µM
SMILES: CC(C)(C)[S@@+]([O-])N1Cc2cc(C(=O)NCc3ccccc3F)nc(-c3cccc(-c4cc5ccccc5o4)c3)c2[C@H]1CCO [2015-foleyc-220, (R)-4-(3-(benzofuran-2-yl)phenyl)-2-((R)-tert-butylsulfinyl)-N-(2-fluorobenzyl)-3-(2-hydroxyethyl)-2,3-dihydro-1H-pyrrolo[3,4-c]pyridine-6-carboxamide]
EC50 [2]: > 100 µM

EC50 [1]: 1.39 ± 0.13 µM
SMILES: CC(C)(C)[S@@+]([O-])N1Cc2cc(C(=O)NCc3ccc4c(c3)OCO4)nc(-c3cccc(-c4cc5ccccc5o4)c3)c2[C@H]1CCO [2015-foleyc-219, (R)-N-(benzo[d][1,3]dioxol-5-ylmethyl)-4-(3-(benzofuran-2-yl)phenyl)-2-((R)-tert-butylsulfinyl)-3-(2-hydroxyethyl)-2,3-dihydro-1H-pyrrolo[3,4-c]pyridine-6-carboxamide]
EC50 [2]: > 100 µM

EC50 [1]: > 25 µM
SMILES: CC(C)(C)[S@@+]([O-])N1Cc2cc(C(=O)NCC(F)(F)F)nc(-c3cccc(-c4cc5ccccc5o4)c3)c2[C@H]1CCO [2015-foleyc-226, (R)-4-(3-(benzofuran-2-yl)phenyl)-2-((R)-tert-butylsulfinyl)-3-(2-hydroxyethyl)-N-(2,2,2-trifluoroethyl)-2,3-dihydro-1H-pyrrolo[3,4-c]pyridine-6-carboxamide]
EC50 [2]: > 100 µM

EC50 [1]: 0.86 ± 0.08 µM
SMILES: CC(C)(C)[S@+]([O-])N1Cc2cc(C(=O)NCc3ccc4c(c3)OCO4)nc(-c3cccc(-c4cccnc4)c3)c2[C@@H]1CCO [ent-Tan003-008]

EC50 [1]: 3.5 ± 0.97 µM
SMILES: CC(C)NC(=O)N1Cc2cc(C(=O)NCC(F)(F)F)nc(-c3ccccc3)c2[C@H]1CCO [2015-foleyc-267, (R)-3-(2-hydroxyethyl)-N^2-isopropyl-4-phenyl-N^6-(2,2,2-trifluoroethyl)-1,3-dihydro-2H-pyrrolo[3,4-c]pyridine-2,6-dicarboxamide]
EC50 [2]: > 100 µM

EC50 [1]: 9.95 ± 0.89 µM
SMILES: CC(C)NC(=O)N1Cc2cc(C(=O)NCc3ccccc3F)nc(-c3cccc(-c4cccnc4)c3)c2[C@H]1CCO [2015-foleyc-254, (R)-N^6-(2-fluorobenzyl)-3-(2-hydroxyethyl)-N^2-isopropyl-4-(3-(pyridin-3-yl)phenyl)-1,3-dihydro-2H-pyrrolo[3,4-c]pyridine-2,6-dicarboxamide]
EC50 [2]: 71 µM

EC50 [1]: 10.2 ± 0.94 µM
SMILES: CC(C)NC(=O)N1Cc2cc(C(=O)NCc3ccccc3F)nc(-c3cccc(-c4cc5ccccc5o4)c3)c2[C@H]1CCO [2015-foleyc-268, (R)-4-(3-(benzofuran-2-yl)phenyl)-N^6-(2-fluorobenzyl)-3-(2-hydroxyethyl)-N^2-isopropyl-1,3-dihydro-2H-pyrrolo[3,4-c]pyridine-2,6-dicarboxamide]
EC50 [2]: > 100 µM

EC50 [1]: > 25 µM
SMILES: CC(C)(C)[S@@+]([O-])N1Cc2cc(C(=O)NCc3ccccc3F)nc(-c3cccc(-c4cccnc4)c3)c2C1 [2015-foleyc-213, (R)-2-(tert-butylsulfinyl)-N-(2-fluorobenzyl)-4-(3-(pyridin-3-yl)phenyl)-2,3-dihydro-1H-pyrrolo[3,4-c]pyridine-6-carboxamide]
EC50 [2]: > 100 µM

SMILES: CC(C)NC(=O)N1Cc2cc(C(=O)NCC(F)(F)F)nc(-c3cccc(-c4cc5ccccc5o4)c3)c2[C@H]1CCO [drawing 328]
Relative Bioavailability, Frel (AUCinf po / AUCinf ip) ([3]; Dose: 50 mg/kg): 57%
AUC(0-inf) ([3]; ip, Dose: 50 mg/kg, liver, read-out: PK (ip, plasma/liver) AUCinf, liver): 186 µM·h
Tmax ([3]; ip, Dose: 50 mg/kg, liver, read-out: PK (ip, plasma/liver) Tmax, liver): 0.1 h
half-life ([3]; ip, Dose: 50 mg/kg, liver, read-out: PK (ip, plasma/liver) t1/2, liver (converted)): 2.2 h
AUC(0-inf) ([3]; ip, Dose: 50 mg/kg, plasma, read-out: PK (ip, plasma/liver) AUCinf, plasma): 52.7 µM·h
Cmax ([3]; ip, Dose: 50 mg/kg, plasma, read-out: PK (ip, plasma/liver) Cmax, plasma): 14 µM
Tmax ([3]; ip, Dose: 50 mg/kg, plasma, read-out: PK (ip, plasma/liver) Tmax, plasma): 1 h
half-life ([3]; ip, Dose: 50 mg/kg, plasma, read-out: PK (ip, plasma/liver) t1/2, plasma (converted)): 1.2 h
AUC(0-inf) ([3]; po, Dose: 50 mg/kg, liver, read-out: PK (po, plasma/liver) Area under the curve (AUCinf), liver): 108 µM·h
Tmax ([3]; po, Dose: 50 mg/kg, liver, read-out: PK (po, plasma/liver) Tmax, liver): 0.25 h
half-life ([3]; po, Dose: 50 mg/kg, liver, read-out: PK (po, plasma/liver) t1/2, liver (converted)): 3.1 h
AUC(0-inf) ([3]; po, Dose: 50 mg/kg, plasma, read-out: PK (po, plasma/liver) Area under the curve (AUCinf), plasma): 29.9 µM·h
Cmax ([3]; po, Dose: 50 mg/kg, plasma, read-out: PK (po, plasma/liver) Cmax, plasma): 10.9 µM
Tmax ([3]; po, Dose: 50 mg/kg, plasma, read-out: PK (po, plasma/liver) Tmax, plasma): 0.25 h
half-life ([3]; po, Dose: 50 mg/kg, plasma, read-out: PK (po, plasma/liver) t1/2, plasma (converted)): 8.2 h
PK (ip, plasma/liver) Cmax, liver ([3]; ip, Dose: 50 mg/kg, liver): 58.6 µM
PK (po, plasma/liver) Cmax, liver ([3]; po, Dose: 50 mg/kg, liver): 53.8 µM

SMILES: CC(C)(C)[S@@+]([O-])N1Cc2cc(C(=O)NCc3ccccc3F)nc(-c3cccc(-c4cccnc4)c3)c2[C@H]1CCO [drawing 330]
Relative Bioavailability, Frel (AUCinf po / AUCinf ip) ([3]; Dose: 100 mg/kg): 22%
AUC(0-inf) [3, 4]: 306 µM·h
Tmax [3, 5]: 0.25 h
half-life [3, 6]: 4.6 h
AUC(0-inf) [3, 7]: 168 µM·h
Cmax [3, 8]: 72.6 µM
Tmax [3, 9]: 1 h
half-life [3, 10]: 1.9 h
AUC(0-inf) [3, 11]: 125 µM·h
Tmax [3, 12]: 0.5 h
half-life [3, 13]: 6.4 h
AUC(0-inf) [3, 14]: 36.7 µM·h
Cmax [3, 15]: 56.4 µM
Tmax [3, 16]: 0.5 h
half-life [3, 17]: 2.1 h
PK (ip, plasma/liver) Cmax, liver ([3]; ip, Dose: 100 mg/kg, liver): 111.3 µM
PK (po, plasma/liver) Cmax, liver ([3]; po, Dose: 100 mg/kg, liver): 49.2 µM

SMILES: CC(C)(C)[S@@+]([O-])N1Cc2cc(C(=O)NCc3ccc4c(c3)OCO4)nc(-c3cccc(-c4cccnc4)c3)c2[C@H]1CCO [drawing 329]
Relative Bioavailability, Frel (AUCinf po / AUCinf ip) ([3]; Dose: 100 mg/kg): 49%
AUC(0-inf) [3, 4]: 667 µM·h
Tmax [3, 5]: 0.5 h
half-life [3, 6]: 3.5 h
AUC(0-inf) [3, 7]: 158 µM·h
Cmax [3, 8]: 33.4 µM
Tmax [3, 9]: 0.5 h
half-life [3, 10]: 2.4 h
AUC(0-inf) [3, 11]: 238 µM·h
Tmax [3, 12]: 4 h
half-life [3, 13]: 16.9 h
AUC(0-inf) [3, 14]: 77.1 µM·h
Cmax [3, 15]: 27.6 µM
Tmax [3, 16]: 1 h
half-life [3, 17]: 1.1 h
PK (ip, plasma/liver) Cmax, liver ([3]; ip, Dose: 100 mg/kg, liver): 87.6 µM
PK (po, plasma/liver) Cmax, liver ([3]; po, Dose: 100 mg/kg, liver): 39.6 µM
